Measured values: ChEMBL document CHEMBL4619828, “Discovery of Potent and Orally Bioavailable Small Molecule Antagonists of Toll-like Receptors 7/8/9 (TLR7/8/9)” (ACS Med Chem Lett, 2020)

Legend:
[1] = biological target: T1, Toll-like receptor 9 (Homo sapiens, UniProt Q9NR96); test: Antagonist activity at human TLR9 overexpressed in HEK-Blue cells assessed as inhibition of ODN2006-induced NFkappaB and AP-1 activation preincubated for 30 mins followed by ODN2006 stimulation measured after 22 hrs by quanti-blue SEAP assay; type: cell-based
T1 sequence (Q9NR96 whole entry): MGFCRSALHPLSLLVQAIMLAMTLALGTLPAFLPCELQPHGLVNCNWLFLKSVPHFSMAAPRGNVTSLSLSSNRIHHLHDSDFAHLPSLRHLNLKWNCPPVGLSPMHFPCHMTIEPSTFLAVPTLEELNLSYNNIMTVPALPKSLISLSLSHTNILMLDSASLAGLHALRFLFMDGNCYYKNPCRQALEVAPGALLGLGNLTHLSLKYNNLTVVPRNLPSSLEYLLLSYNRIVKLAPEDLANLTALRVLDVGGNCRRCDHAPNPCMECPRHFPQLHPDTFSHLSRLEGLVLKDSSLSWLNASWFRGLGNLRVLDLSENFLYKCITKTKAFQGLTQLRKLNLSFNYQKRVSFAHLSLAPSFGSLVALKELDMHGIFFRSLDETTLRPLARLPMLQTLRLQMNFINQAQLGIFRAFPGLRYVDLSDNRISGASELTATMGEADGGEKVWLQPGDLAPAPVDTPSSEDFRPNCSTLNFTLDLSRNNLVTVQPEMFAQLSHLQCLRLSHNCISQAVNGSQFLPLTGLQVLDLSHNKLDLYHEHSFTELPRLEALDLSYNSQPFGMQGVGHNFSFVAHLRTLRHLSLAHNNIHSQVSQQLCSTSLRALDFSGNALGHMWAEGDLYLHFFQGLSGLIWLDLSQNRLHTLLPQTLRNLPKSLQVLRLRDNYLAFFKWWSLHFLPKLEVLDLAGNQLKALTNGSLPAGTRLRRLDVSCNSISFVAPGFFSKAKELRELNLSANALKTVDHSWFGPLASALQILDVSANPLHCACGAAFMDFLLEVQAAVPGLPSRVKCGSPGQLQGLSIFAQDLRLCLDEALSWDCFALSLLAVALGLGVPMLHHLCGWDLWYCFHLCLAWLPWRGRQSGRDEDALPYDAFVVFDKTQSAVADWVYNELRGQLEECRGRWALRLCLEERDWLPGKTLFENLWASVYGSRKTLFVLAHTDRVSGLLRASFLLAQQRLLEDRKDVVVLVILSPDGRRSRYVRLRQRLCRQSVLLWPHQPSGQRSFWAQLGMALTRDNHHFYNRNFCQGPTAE

[2] = biological target: T2, Toll-like receptor 9 (Mus musculus, UniProt Q9EQU3); test: Antagonist activity at TLR9 in mouse whole blood cells assessed as inhibition of ODN-2216 induced IL-6 production by ELISA; type: cell-based
T2 sequence (Q9EQU3 whole entry): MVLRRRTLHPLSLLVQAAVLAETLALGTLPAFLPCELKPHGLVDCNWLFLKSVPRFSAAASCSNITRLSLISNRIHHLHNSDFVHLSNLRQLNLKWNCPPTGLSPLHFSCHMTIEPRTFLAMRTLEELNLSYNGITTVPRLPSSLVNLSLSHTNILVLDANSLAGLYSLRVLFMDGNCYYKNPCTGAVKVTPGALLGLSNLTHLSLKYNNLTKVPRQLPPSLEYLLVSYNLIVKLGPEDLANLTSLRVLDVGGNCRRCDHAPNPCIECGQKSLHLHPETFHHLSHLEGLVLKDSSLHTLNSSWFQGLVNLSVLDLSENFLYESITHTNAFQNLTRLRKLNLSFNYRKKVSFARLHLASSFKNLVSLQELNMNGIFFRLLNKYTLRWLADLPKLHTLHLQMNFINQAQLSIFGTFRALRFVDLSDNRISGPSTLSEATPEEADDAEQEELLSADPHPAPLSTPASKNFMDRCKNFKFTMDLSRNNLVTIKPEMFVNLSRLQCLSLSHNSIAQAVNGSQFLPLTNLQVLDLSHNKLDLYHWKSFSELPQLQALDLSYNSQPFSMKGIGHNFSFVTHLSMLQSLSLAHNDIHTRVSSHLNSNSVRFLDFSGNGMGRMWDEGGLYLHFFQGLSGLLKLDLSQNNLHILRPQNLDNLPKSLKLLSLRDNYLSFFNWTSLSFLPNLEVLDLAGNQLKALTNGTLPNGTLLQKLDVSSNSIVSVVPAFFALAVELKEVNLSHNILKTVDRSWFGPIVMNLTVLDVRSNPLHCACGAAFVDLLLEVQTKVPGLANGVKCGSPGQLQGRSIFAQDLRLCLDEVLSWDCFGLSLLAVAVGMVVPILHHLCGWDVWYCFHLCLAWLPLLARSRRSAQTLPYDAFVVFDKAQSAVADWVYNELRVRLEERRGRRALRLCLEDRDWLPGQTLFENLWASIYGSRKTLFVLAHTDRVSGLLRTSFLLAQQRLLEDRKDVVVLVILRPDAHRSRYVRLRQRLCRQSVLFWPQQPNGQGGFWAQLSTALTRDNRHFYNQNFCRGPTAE

[3] = Oral bioavailability in mouse at 15 mg/kg; type: ADME, organism-based; settings: in vivo
[4] = biological target: Toll-like receptor 4 (Homo sapiens, UniProt O00206); test: Antagonist activity at human TLR4 overexpressed in HEK-Blue cells assessed as inhibition of […] induced NFkappaB and AP-1 activation preincubated for 30 mins followed by […] stimulation measured after 22 hrs by quanti-blue SEAP assay; type: cell-based
Chain of Toll-like receptor 4 (O00206 whole entry): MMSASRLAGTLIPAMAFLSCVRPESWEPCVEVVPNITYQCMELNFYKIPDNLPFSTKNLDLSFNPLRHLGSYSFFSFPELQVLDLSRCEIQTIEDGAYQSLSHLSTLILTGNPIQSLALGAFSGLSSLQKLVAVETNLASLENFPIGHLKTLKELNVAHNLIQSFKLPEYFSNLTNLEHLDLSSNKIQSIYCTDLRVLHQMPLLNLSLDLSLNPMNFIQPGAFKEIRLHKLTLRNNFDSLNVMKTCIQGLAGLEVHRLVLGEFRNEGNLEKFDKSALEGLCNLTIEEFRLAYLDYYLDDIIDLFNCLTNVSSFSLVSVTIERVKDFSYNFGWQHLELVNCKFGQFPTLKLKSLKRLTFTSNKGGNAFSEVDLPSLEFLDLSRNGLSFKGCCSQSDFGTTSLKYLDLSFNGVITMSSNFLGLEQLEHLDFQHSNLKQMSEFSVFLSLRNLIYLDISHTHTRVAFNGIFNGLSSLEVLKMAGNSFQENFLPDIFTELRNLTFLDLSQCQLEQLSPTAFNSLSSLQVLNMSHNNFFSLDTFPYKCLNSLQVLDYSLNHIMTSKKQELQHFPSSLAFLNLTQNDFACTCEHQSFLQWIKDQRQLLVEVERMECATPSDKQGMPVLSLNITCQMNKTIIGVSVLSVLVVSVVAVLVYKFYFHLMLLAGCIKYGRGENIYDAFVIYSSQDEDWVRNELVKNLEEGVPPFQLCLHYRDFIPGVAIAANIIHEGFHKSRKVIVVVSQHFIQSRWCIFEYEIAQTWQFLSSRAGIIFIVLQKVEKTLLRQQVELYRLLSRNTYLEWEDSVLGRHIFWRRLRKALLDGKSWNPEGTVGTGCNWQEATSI

[5] = biological target: T1, Toll-like receptor 9; test: Antagonist activity at TLR9 in human whole blood cells assessed as inhibition of ODN-2216 induced IL-6 production by ELISA; type: cell-based
[6] = Tmax in mouse at 15 mg/kg, po; type: ADME, organism-based; settings: in vivo
[7] = Clearance in mouse at 3 mg/kg, iv; type: ADME, organism-based; settings: in vivo
[8] = biological target: T1, Toll-like receptor 9; test: Agonist activity at human TLR9 overexpressed in HEK-Blue cells assessed as NFkappaB expression by reporter gene assay; type: cell-based
[9] = Volume of distribution in steady state in mouse at 3 mg/kg, iv; type: ADME, organism-based; settings: in vivo, read-out: Vdss

## CNCCN1CCC(c2ccc3[nH]c(-c4ccc(OC)c(OC)c4)c(C(C)C)c3c2)CC1
[1]
  IC50: 700 nM
[2]
  IC50: 510 nM
[3]
  bioavailability: 62%
[4]
  IC50: 15100 nM
[5]
  IC50: 320 nM
[6]
  Tmax: 30 min
[7]
  clearance: 7.7 mL/min/kg
[8]
  IC50: > 50000 nM
[9]
  Vd: 20 L/kg
